Source: patent US9421203B2, “Sensitization of cancer cells to DNA damage by inhibiting kinases essential for DNA damage checkpoint control” (Institute for Cancer Research, priority 2012, dated 2016)
Entries after “also recorded” stand apart in the source; their conditions may differ.

Assays:
[1] = tested on: PANC1 cells; assay: Time-lapse video-microscopy of checkpoint override (premature mitosis) in PANC1 cells; assay type: cell-based; details: gemcitabine 24 h, then inhibitor 1 μM (UCN-01 100 nM), time-lapse 24 hours
Method: PANC1 cells were treated with gemcitabine for 24 hours before the addition of kinase inhibitors (1 μM), and filming commenced thereafter.
Time-lapse video microscopy was used to document the fates of cells treated with gemcitabine with and without the Chk1 inhibitor, UCN-01 (FIG. 3).

[2] = tested on: PANC1 cells; assay type: cell-based; details: for sensitization of PANC1 cells to gemcitabine: increasing gemcitabine 24 h, then UCN-01 100 nM, bosutinib or sunitinib 1 μM for 48 h (FIG. 1B)
[3] = tested on: PANC1 cells; assay: Immunofluorescence of mitotic figures in gemcitabine-arrested cells; assay type: cell-based; details: UCN-01 100 nM or Bos-I 1000 nM (FIG. 4)
Description: Shown are representative images of cells from each treatment.
The mitotic figures of cells forced into mitosis by the newly identified sensitizers were examined to determine how they compared to checkpoint override by UCN-01. […] The defects include two lobes of chromatin that lie outside of the spindle, with the detached kinetochores lying within the spindle.
It was observed that overriding the gemcitabine induced S phase checkpoint arrest with Chk1 inhibitors (UCN-01) results in a discrete and reproducible mitotic defect called MUGs (mitotically unreplicated genomes). The defining feature of MUGs is the unreplicated centromeres in the genome are physically detached from the chromosome mass (FIG. 4).

[4] = tested on: PANC1 cells; assay: Clonogenic survival assay in PANC1 cells; assay type: cell-based; details: gemcitabine 10 nM 24 h
Method: Surviving colonies were determined 10 days later. […] After this time all drugs were removed and cells were plated to determine their efficiency of colony formation after 10 days.

[5] = tested on: Mia-PaCa-II cells; assay: Mia-PaCa-II cell viability after gemcitabine followed by authentic bosutinib; assay type: cell-based; details: authentic bosutinib at 2.5 μM and 5 μM (FIG. 7D)
[6] = tested on: PANC1 cells; assay: cells; assay type: cell-based; details: for viability of gemcitabine treated PANC1 cells: gemcitabine 10 nM 24 h, then inhibitor 1 μM for 48 h (FIG. 1A)
Method: FIGS. 7A-7D show the viability of PANC1 cells treated with increasing concentrations of (FIG. 7A) doxorubicin or (FIG. 7B) cisplatin (24 h) before the addition of UCN-01 (100 nM) or Bos-I (1000 nM) for a further 48 hours.
Identification of clinically relevant kinase inhibitors that sensitize cells to gemcitabine. In the experiments described in this Example, the general protocol was to treat pancreatic cancer cell line (Panc-1) with a dose of gemcitabine that induces DNA damage and arrests cell cycle progression. A panel of nine different clinically relevant kinase inhibitors (FIG. 1A) were added to gemcitabine treated cells, and were assessed for their ability to enhance killing of pancreatic cancer cells to gemcitabine. PANC1 cells were treated with a sub-lethal (IC20) concentration of gemcitabine (10 nM) for 24 hours (a time and concentration sufficient to induce DNA damage and S phase arrest) and kinase inhibitors (all at 1 μM final) were added for another 48 h before cell viability was measured. UCN-01, a Chk1 inhibitor that is established as a sensitizer of gemcitabine was included as a positive control.

[7] = tested on: 300 recombinant human protein kinases; details: of 300 recombinant human kinases; database / Anastassiadis 2011; cited from earlier work
[8] = tested on: Ba/F3 cells expressing the Bcr-Abl wild-type (WT); assay: Viability of Ba/F3 cells expressing Bcr-Abl wild-type with bendamustine; assay type: cell-based; details: Bos-I 1000 nM (FIG. 9A)
Method: (§1) FIGS. 9A and 9B show the viability of Ba/F3 cells either expressing (FIG. 9A) the Bcr-Abl wild-type (WT) or (FIG. 9B) the Bcr-Abl mutant (T3151) kinases (lower) treated with increasing concentrations of bendamustine alone or with the addition of Bos-1 (1000 nM).
(§2) It is believed that inhibitors of Src and Abl tyrosine kinases may be effective as a single agent in the treatment of CML (Chronic myelogenous leukemia) where it contains a specific chromosome translocation that fuses the Abl kinase to the Bcr gene. Inhibitors of the Bcr/Abl fusion kinase, such as imatinib and bostunib (Formula I), are effective in the treatment of CML, but resistance (at least for imatinib) invariably occurs. Resistance to imatinib occurs most often as a result of mutations at the gatekeeper position (Threonine 315) within the Abl kinase domain. Such mutants no longer respond to inhibitors such as imatinib. […] (FIG. 9A and FIG. 9B). It is believed that the activity of Bosutinib-isomer against wild type and T3151 mutant is likely mediated through its off-target effects against the DNA damage checkpoint kinases, Wee1 and Chk1.

[9] = tested on: Tyr15 phosphorylation of Cdc2; assay: Tyr15 phosphorylation of Cdc2 in gemcitabine treated PANC1 cells; assay type: cell-based; details: PANC1 cells treated with gemcitabine
Description: Inhibition of Tyr15 phosphorylation was not observed for dasatnib, which is fully consistent with its in vitro kinase profile, and its inability to override the DNA damage checkpoint.

[10] = molecular target: Wee 1 (Homo sapiens, UniProt P30291); assay: IC50 / kinase assay toward recombinant Wee1 (MBP or Cdc2 substrate); assay type: biochemical; details: Cdc2 as substrate; data not shown
[11] = tested on: Ba/F3 cells expressing the Bcr-Abl mutant (T3151); assay: Viability of Ba/F3 cells expressing Bcr-Abl mutant with bendamustine; assay type: cell-based; details: Bos-I 1000 nM (FIG. 9B)
Method: as §1, §2

[12] = tested on: EGF-1 cells; assay: Immunofluorescence of checkpoint override in patient-derived pancreatic cancer cell line EGF-1; assay type: cell-based; details: arrest imposed by either gemcitabine or doxorubicin
Description: Quantification of the percentage of cells that enter mitosis/override the checkpoint after treatment with either gemcitabine or doxorubicin is shown (right panel).
Tumor cells were isolated under an IRB-approved protocol and passaged as xenografts in mice. EGF-1 is a cell line that was derived from F1 tumors and used for in vitro studies.

Chain of Wee 1 (P30291 whole entry): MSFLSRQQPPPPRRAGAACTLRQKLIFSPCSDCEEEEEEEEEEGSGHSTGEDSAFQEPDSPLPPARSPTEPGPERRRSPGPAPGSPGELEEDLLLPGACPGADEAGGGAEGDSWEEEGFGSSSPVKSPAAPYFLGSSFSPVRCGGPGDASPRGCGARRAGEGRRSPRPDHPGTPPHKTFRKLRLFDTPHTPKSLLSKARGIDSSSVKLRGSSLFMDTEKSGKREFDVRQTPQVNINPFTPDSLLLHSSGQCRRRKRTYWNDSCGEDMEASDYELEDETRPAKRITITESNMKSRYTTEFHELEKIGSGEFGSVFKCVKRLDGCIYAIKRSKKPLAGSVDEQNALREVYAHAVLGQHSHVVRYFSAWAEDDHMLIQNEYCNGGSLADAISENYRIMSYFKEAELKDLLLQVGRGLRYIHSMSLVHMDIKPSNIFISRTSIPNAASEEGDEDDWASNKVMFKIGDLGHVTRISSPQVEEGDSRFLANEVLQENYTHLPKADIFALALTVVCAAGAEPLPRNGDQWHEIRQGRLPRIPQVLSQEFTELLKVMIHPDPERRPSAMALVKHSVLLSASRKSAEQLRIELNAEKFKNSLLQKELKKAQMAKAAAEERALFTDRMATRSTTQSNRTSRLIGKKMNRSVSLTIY

## CN[C@@H]1C[C@H]2O[C@@](C)([C@@H]1OC)n1c3ccccc3c3c4c(c5c6ccccc6n2c5c31)C(=O)N[C@@H]4O [UCN-01]
[1]
  checkpoint override / premature entry into mitosis: forced cells to prematurely enter mitosis; also recorded: increased the number of cells that entered mitosis
[2]
  sensitization of PANC1 cells to gemcitabine: sensitized cells to gemcitabine
[3]
  mitotic figures of gemcitabine-arrested cells: severely perturbed mitotic figures

## COc1cc(Nc2c(C#N)cnc3cc(OCCCN4CCN(C)CC4)c(OC)cc23)c(Cl)cc1Cl [Authentic bosutinib, Bosutinib]
[4]; compound 0.5 μM for 3 h, colonies after 10 days (FIG. 2)
  sensitization to killing by gemcitabine, clonogenic survival: not
[5]
  sensitization of Mia-PaCa-II cells to gemcitabine: sensitized to gemcitabine
[6]
  viability of gemcitabine treated PANC1 cells: significantly reduced viability of cells treated with gemcitabine
[7]
  number of kinases inhibited by more than 50%: 84/300
[1]
  checkpoint override / premature entry into mitosis: able to override the checkpoint and force cells into premature mitosis
[2]; PANC1, titration of sensitizer
  minimum effective concentration to sensitize cells to gemcitabine: 750 nM
[2]
  sensitization of PANC1 cells to gemcitabine: sensitized cells to gemcitabine

## COc1cc2c(Nc3cc(Cl)c(OC)c(Cl)c3)c(C#N)cnc2cc1OCCCN1CCN(C)CC1 [Bosutinib isomer, Bosutinib-I]
[4]; compound 1 μM for 3 h, colonies after 10 days (FIG. 2, FIG. 6)
  sensitization to killing by gemcitabine, clonogenic survival: sensitized cells to killing by gemcitabine
[6]; 1 μM of the isomer (FIG. 7A)
  sensitization of PANC1 cells to doxorubicin: sensitization by the bosutinib isomer was observed
[6]; 1 μM of the isomer (FIG. 7B)
  sensitization of PANC1 cells to cisplatin: sensitization by the bosutinib isomer was observed
[6]; PANC1, 1 uM, MTS assay and clonogenic assays
  sensitization to gemcitabine at 1 uM: sensitized cells to gemcitabine
[6]
  viability of gemcitabine treated PANC1 cells: reduced the viability of gemcitabine treated cells in a dose-dependent manner
[7]
  number of kinases inhibited by more than 50%: 84
[1]
  checkpoint override / premature entry into mitosis: increased the number of mitotic cells
[8]
  killing of cells in combination with Bendamustine: enhanced killing of cells
[9]
  Tyr15 phosphorylation of Cdc2: dose-dependent inhibition of Tyr15 phosphorylation
[3]
  mitotic figures of gemcitabine-arrested cells: abnormal mitotic figures from gemcitabine-arrested cells that were nearly indistinguishable from UCN-01 treatment
[10]
  Wee1 inhibitory activity against physiologically relevant substrate Cdc2: recapitulated the studies that used MBP as a substrate
[11]
  killing of cells in combination with Bendamustine: enhanced killing of cells
[12]
  premature entry into mitosis / checkpoint override in EGF-1 cells: able to prematurely enter mitosis after overriding checkpoint arrests

## Nc1ccn([C@@H]2O[C@H](CO)[C@@H](O)C2(F)F)c(=O)n1 [gemcitabine, Gemcitabine]
[6]; Homo sapiens, PANC-1, read-out: LC50 of gemcitabine alone
  CC50: > 0.03 µM

## Cn1c(=O)n(-c2ccc(C(C)(C)C#N)cc2)c2c3cc(-c4cnc5ccccc5c4)ccc3ncc21 [BEZ-235]
[6]
  viability of gemcitabine treated PANC1 cells: significantly reduced viability of cells treated with gemcitabine
